Reference: patent US8445492B2, “Method for inhibiting growth of cancer cells and cell telomere and diseases of cell proliferation by using heteroannelated anthraquinone derivative compounds” (National Defense Medical Center, priority 2008, dated 2013)

Assays:
Assay type in all cases: cell-based
T-47D = assay: in vitro test at 1.0×10^−5 M, Breast cancer cell; settings: 1.0×10^−5 molal concentration (M)
MOLT-4 = assay: in vitro test at 1.0×10^−5 M, Blood cancer cell; settings: 1.0×10^−5 molal concentration (M)
SF-539 = assay: in vitro test at 1.0×10^−5 M, CNS cancer cell; settings: 1.0×10^−5 molal concentration (M)
HCC-2998 = assay: NCI DTP in-vitro dose response, Colon Cancer
HCT-116 = assay: NCI DTP in-vitro dose response, Colon Cancer
HCT-15 = assay: NCI DTP in-vitro dose response, Colon Cancer
SW-620 = assay: NCI DTP in-vitro dose response, Colon Cancer
SF-295 = assay: NCI DTP in-vitro dose response, CNS Cancer
SNB-19 = assay: NCI DTP in-vitro dose response, CNS Cancer
SNB-75 = assay: NCI DTP in-vitro dose response, CNS Cancer
LOX IMVI = assay: NCI DTP in-vitro dose response, Melanoma
SK-MEL-5 = assay: NCI DTP in-vitro dose response, Melanoma
786-0 = assay: NCI DTP in-vitro dose response, Renal Cancer
A498 = assay: NCI DTP in-vitro dose response, Renal Cancer
CAKI-1 = assay: NCI DTP in-vitro dose response, Renal Cancer
TK-10 = assay: NCI DTP in-vitro dose response, Renal Cancer
MDA-MB-231/ATCC = assay: NCI DTP in-vitro dose response, Breast Cancer

SMILES: CCc1nc2ccc3c(c2[nH]1)C(=O)c1ccccc1C3=O [No. 4, 2-Ethyl-1(3)H-anthra[1,2-d]imidazole-6,11-dione]
- inhibition effect on cancer cell line (Table 2 value) (T-47D): 63.05
- inhibition effect on cancer cell line (Table 2 value) (MOLT-4): 64.17
- inhibition effect on cancer cell line (Table 2 value) (SF-539): 83.16

SMILES: O=C1c2ccccc2C(=O)c2c1ccc1nsnc21 [No. 22, Anthra[2,1-c][1,2,5]thiadiazole-6,11-dione]
- TGI (HCC-2998; HCC-2998): 4.20E−6
- GI50 (HCC-2998; Homo sapiens, HCC 2998): 2.12 µM
- CC50 (HCC-2998; Homo sapiens, HCC 2998, read-out: LC50): 8.32 µM
- Percent Growth (HCC-2998; Log10 Concentration −4.0): −70%
- Percent Growth (HCC-2998; Log10 Concentration −5.0): −63%
- Percent Growth (HCC-2998; Log10 Concentration −6.0): 105%
- Percent Growth (HCC-2998; Log10 Concentration −7.0): 103%
- Percent Growth (HCC-2998; Log10 Concentration −8.0): 109%
- TGI (HCT-116; HCT-116): 1.06E−5
- GI50 (HCT-116; Homo sapiens, HCT-116): 2.84 µM
- CC50 (HCT-116; Homo sapiens, HCT-116, read-out: LC50): > 100 µM
- Percent Growth (HCT-116; Log10 Concentration −4.0): −31%
- Percent Growth (HCT-116; Log10 Concentration −5.0): 1%
- Percent Growth (HCT-116; Log10 Concentration −6.0): 91%
- Percent Growth (HCT-116; Log10 Concentration −7.0): 97%
- Percent Growth (HCT-116; Log10 Concentration −8.0): 99%
- TGI (HCT-15; HCT-15): 7.80E−6
- GI50 (HCT-15; Homo sapiens, HCT-15): 2.49 µM
- CC50 (HCT-15; Homo sapiens, HCT-15, read-out: LC50): 90.6 µM
- Percent Growth (HCT-15; Log10 Concentration −4.0): −52%
- Percent Growth (HCT-15; Log10 Concentration −5.0): −11%
- Percent Growth (HCT-15; Log10 Concentration −6.0): 90%
- Percent Growth (HCT-15; Log10 Concentration −7.0): 104%
- Percent Growth (HCT-15; Log10 Concentration −8.0): 110%
- GI50 (SW-620; Homo sapiens, SW-620): 8.55 µM
- CC50 (SW-620; Homo sapiens, SW-620, read-out: LC50): 69.2 µM
- Percent Growth (SW-620; Log10 Concentration −4.0): −68%
- Percent Growth (SW-620; Log10 Concentration −5.0): 46%
- Percent Growth (SW-620; Log10 Concentration −6.0): 107%
- Percent Growth (SW-620; Log10 Concentration −7.0): 103%
- Percent Growth (SW-620; Log10 Concentration −8.0): 106%
- TGI (SW-620; SW-620): 2.52E−5
- GI50 (SF-295; Homo sapiens, SF-295): 3.08 µM
- CC50 (SF-295; Homo sapiens, SF-295, read-out: LC50): 93.9 µM
- Percent Growth (SF-295; Log10 Concentration −4.0): −51%
- Percent Growth (SF-295; Log10 Concentration −5.0): −3%
- Percent Growth (SF-295; Log10 Concentration −6.0): 100%
- Percent Growth (SF-295; Log10 Concentration −7.0): 105%
- Percent Growth (SF-295; Log10 Concentration −8.0): 102%
- TGI (SF-295; SF-295): 9.40E−6
- GI50 (SNB-19; Homo sapiens, SNB-19): 1.86 µM
- CC50 (SNB-19; Homo sapiens, SNB-19, read-out: LC50): 6.43 µM
- Percent Growth (SNB-19; Log10 Concentration −4.0): −98%
- Percent Growth (SNB-19; Log10 Concentration −5.0): −86%
- Percent Growth (SNB-19; Log10 Concentration −6.0): 100%
- Percent Growth (SNB-19; Log10 Concentration −7.0): 101%
- Percent Growth (SNB-19; Log10 Concentration −8.0): 102%
- TGI (SNB-19; SNB-19): 3.46E−6
- GI50 (SNB-75; Homo sapiens, SNB-75): 1.42 µM
- CC50 (SNB-75; Homo sapiens, SNB-75, read-out: LC50): 5.22 µM
- Percent Growth (SNB-75; Log10 Concentration −4.0): −100%
- Percent Growth (SNB-75; Log10 Concentration −5.0): −100%
- Percent Growth (SNB-75; Log10 Concentration −6.0): 77%
- Percent Growth (SNB-75; Log10 Concentration −7.0): 66%
- Percent Growth (SNB-75; Log10 Concentration −8.0): 76%
- TGI (SNB-75; SNB-75): 2.73E−6
- GI50 (LOX IMVI; Homo sapiens, LOX IMVI): 1.03 µM
- CC50 (LOX IMVI; Homo sapiens, LOX IMVI, read-out: LC50): > 100 µM
- TGI (LOX IMVI; LOX IMVI): 3.56E−6
- Percent Growth (LOX IMVI; Log10 Concentration −4.0): −33%
- Percent Growth (LOX IMVI; Log10 Concentration −5.0): −42%
- Percent Growth (LOX IMVI; Log10 Concentration −6.0): 51%
- Percent Growth (LOX IMVI; Log10 Concentration −7.0): 98%
- Percent Growth (LOX IMVI; Log10 Concentration −8.0): 101%
- GI50 (SK-MEL-5; Homo sapiens, SK-MEL-5): 1.13 µM
- CC50 (SK-MEL-5; Homo sapiens, SK-MEL-5, read-out: LC50): 4.83 µM
- Percent Growth (SK-MEL-5; Log10 Concentration −4.0): −100%
- Percent Growth (SK-MEL-5; Log10 Concentration −5.0): −100%
- Percent Growth (SK-MEL-5; Log10 Concentration −6.0): 58%
- Percent Growth (SK-MEL-5; Log10 Concentration −7.0): 85%
- Percent Growth (SK-MEL-5; Log10 Concentration −8.0): 98%
- TGI (SK-MEL-5; SK-MEL-5): 2.34E−6
- TGI (786-0; 786-0): 1.16E−5
- GI50 (786-0; Homo sapiens, 786-0): 3.93 µM
- CC50 (786-0; Homo sapiens, 786-0, read-out: LC50): 52.7 µM
- Percent Growth (786-0; Log10 Concentration −4.0): −71%
- Percent Growth (786-0; Log10 Concentration −5.0): 5%
- Percent Growth (786-0; Log10 Concentration −6.0): 116%
- Percent Growth (786-0; Log10 Concentration −7.0): 106%
- Percent Growth (786-0; Log10 Concentration −8.0): 105%
- TGI (A498; A498): >1.00E−4
- GI50 (A498; Homo sapiens, A498): > 100 µM
- CC50 (A498; Homo sapiens, A498, read-out: LC50): > 100 µM
- Percent Growth (A498; Log10 Concentration −4.0): 84%
- Percent Growth (A498; Log10 Concentration −5.0): 100%
- Percent Growth (A498; Log10 Concentration −6.0): 96%
- Percent Growth (A498; Log10 Concentration −7.0): 104%
- Percent Growth (A498; Log10 Concentration −8.0): 105%
- TGI (CAKI-1; CAKI-1): 6.16E−6
- GI50 (CAKI-1; Homo sapiens, CAKI-1): 2.18 µM
- CC50 (CAKI-1; Homo sapiens, CAKI-1, read-out: LC50): 41.5 µM
- Percent Growth (CAKI-1; Log10 Concentration −4.0): −66%
- Percent Growth (CAKI-1; Log10 Concentration −5.0): −23%
- Percent Growth (CAKI-1; Log10 Concentration −6.0): 88%
- Percent Growth (CAKI-1; Log10 Concentration −7.0): 95%
- Percent Growth (CAKI-1; Log10 Concentration −8.0): 90%
- GI50 (TK-10; Homo sapiens, TK-10): 34.9 µM
- CC50 (TK-10; Homo sapiens, TK-10, read-out: LC50): > 100 µM
- Percent Growth (TK-10; Log10 Concentration −4.0): −7%
- Percent Growth (TK-10; Log10 Concentration −5.0): 118%
- Percent Growth (TK-10; Log10 Concentration −6.0): 144%
- Percent Growth (TK-10; Log10 Concentration −7.0): 133%
- Percent Growth (TK-10; Log10 Concentration −8.0): 117%
- TGI (TK-10; TK-10): 8.80E−5
- GI50 (MDA-MB-231/ATCC; Homo sapiens, MDA-MB-231): 2.56 µM
- CC50 (MDA-MB-231/ATCC; Homo sapiens, MDA-MB-231, read-out: LC50): > 100 µM
- Percent Growth (MDA-MB-231/ATCC; Log10 Concentration −4.0): 6%
- Percent Growth (MDA-MB-231/ATCC; Log10 Concentration −5.0): 4%
- Percent Growth (MDA-MB-231/ATCC; Log10 Concentration −6.0): 81%
- Percent Growth (MDA-MB-231/ATCC; Log10 Concentration −7.0): 87%
- Percent Growth (MDA-MB-231/ATCC; Log10 Concentration −8.0): 104%
- TGI (MDA-MB-231/ATCC; MDA-MB-231/ATCC): >1.00E−4
